# Where “and” joins values, the source holds several entries; their conditions need not be identical. Equal values may be shown once. Toxic doses and inconclusive results are not listed.
# System: BDF1 mice, P388 leukemia ip, median survival T/C
# Experiment: NCI In Vivo Anticancer Drug Screen. Data for tumor model P388 Leukemia (intraperitoneal) in B6D2F1 (BDF1) mice
# Settings: endpoint: median survival time, higher = longer survival
# In short: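 Read-out is survival of treated animals expressed relative to the vehicle group, as a T/C ratio.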
# [1] = dose: 3.0 mg/kg/injection, schedule: Q01DX009 (ip), vehicle: saline
# [2] = dose: 50.0 mg/kg/injection, schedule: Q01DX009 (ip), vehicle: saline with Tween-80
# [3] = dose: 100.0 mg/kg/injection, schedule: Q01DX009 (ip), vehicle: saline with Tween-80
# [4] = dose: 200.0 mg/kg/injection, schedule: Q01DX009 (ip), vehicle: saline with Tween-80
# [5] = dose: 400.0 mg/kg/injection, schedule: Q01DX009 (ip), vehicle: saline with Tween-80
# [6] = dose: 100.0 mg/kg/injection, schedule: Q04DX003 (ip), vehicle: saline with Tween-80
# [7] = dose: 200.0 mg/kg/injection, schedule: Q04DX003 (ip), vehicle: saline with Tween-80
# [8] = dose: 400.0 mg/kg/injection, schedule: Q04DX003 (ip), vehicle: saline with Tween-80
# [9] = dose: 25.0 mg/kg/injection, schedule: Q01DX009 (ip), vehicle: Klucel (hydroxypropylcellulose) (HPC)
# [10] = dose: 50.0 mg/kg/injection, schedule: Q01DX009 (ip), vehicle: Klucel (hydroxypropylcellulose) (HPC)
# [11] = dose: 100.0 mg/kg/injection, schedule: Q01DX009 (ip), vehicle: Klucel (hydroxypropylcellulose) (HPC)
# [12] = dose: 100.0 mg/kg/injection, schedule: Q04DX003 (ip), vehicle: Klucel (hydroxypropylcellulose) (HPC)
# [13] = dose: 200.0 mg/kg/injection, schedule: Q01DX009 (ip), vehicle: Klucel (hydroxypropylcellulose) (HPC)
# [14] = dose: 200.0 mg/kg/injection, schedule: Q04DX003 (ip), vehicle: Klucel (hydroxypropylcellulose) (HPC)
# [15] = dose: 50.0 mg/kg/injection, schedule: Q01DX009 (ip), vehicle: water
# [16] = dose: 100.0 mg/kg/injection, schedule: Q01DX009 (ip), vehicle: water
structure (smiles),measurement,setting,value
O=C(Nc1ccc(C2=NCCCN2)cc1)c1ccc(C(=O)Nc2ccc(C3=NCCCN3)cc2)nc1,T/C,"dose: 0.85 mg/kg/injection, schedule: Q01DX009 (ip), vehicle: saline",92 % of control
same,T/C,"dose: 1.3 mg/kg/injection, schedule: Q01DX009 (ip), vehicle: saline",103 % of control
same,T/C,[1],155 % of control
same,T/C,"dose: 5.0 mg/kg/injection, schedule: Q01DX009 (ip), vehicle: saline",175 % of control
same,T/C,"dose: 8.0 mg/kg/injection, schedule: Q01DX009 (ip), vehicle: saline",195 % of control
same,T/C,"dose: 10.0 mg/kg/injection, schedule: Q01DX009 (ip), vehicle: saline with Tween-80",122 % of control
same,T/C,"dose: 12.0 mg/kg/injection, schedule: Q01DX009 (ip), vehicle: saline",153 % of control
same,T/C,"dose: 12.5 mg/kg/injection, schedule: Q04DX003 (ip), vehicle: saline",115 % of control
same,T/C,"dose: 16.5 mg/kg/injection, schedule: Q04DX003 (ip), vehicle: saline",118 % of control
same,T/C,"dose: 18.0 mg/kg/injection, schedule: Q01DX009 (ip), vehicle: saline",226 % of control
same,T/C,"dose: 25.0 mg/kg/injection, schedule: Q01DX009 (ip), vehicle: saline",196 % of control
O=C1Nc2ccc(Br)cc2C1=Nc1cccnc1,T/C,[2],100 % of control
same,T/C,[3],104 % of control
same,T/C,[4],111 % of control
same,T/C,[5],111 % of control
COc1ccc(OC(=O)CCCl)cc1,T/C,[6],100 % of control
same,T/C,[7],100 % of control
same,T/C,[8],113 % of control
COc1cc(C=Nc2cc(Br)c(O)c(Br)c2)ccc1N(CCCl)CCCl,T/C,"dose: 3.5 mg/kg/injection, schedule: Q04DX003 (ip), vehicle: Klucel (hydroxypropylcellulose) (HPC)",163 % of control
same,T/C,"dose: 5.44 mg/kg/injection, schedule: Q04DX003 (ip), vehicle: Klucel (hydroxypropylcellulose) (HPC)",150 % of control
same,T/C,"dose: 6.2 mg/kg/injection, schedule: Q01DX009 (ip), vehicle: Klucel (hydroxypropylcellulose) (HPC)",186 % of control
same,T/C,"dose: 8.16 mg/kg/injection, schedule: Q04DX003 (ip), vehicle: Klucel (hydroxypropylcellulose) (HPC)",172 % of control
same,T/C,"dose: 9.37 mg/kg/injection, schedule: Q01DX009 (ip), vehicle: Klucel (hydroxypropylcellulose) (HPC)",227 % of control and 259 % of control
same,T/C,"dose: 12.37 mg/kg/injection, schedule: Q04DX003 (ip), vehicle: Klucel (hydroxypropylcellulose) (HPC)",272 % of control and 220 % of control
same,T/C,"dose: 14.0 mg/kg/injection, schedule: Q01DX009 (ip), vehicle: Klucel (hydroxypropylcellulose) (HPC)",91 % of control
same,T/C,"dose: 18.75 mg/kg/injection, schedule: Q04DX003 (ip), vehicle: Klucel (hydroxypropylcellulose) (HPC)",265 % of control and 268 % of control and 272 % of control
same,T/C,"dose: 28.12 mg/kg/injection, schedule: Q04DX003 (ip), vehicle: Klucel (hydroxypropylcellulose) (HPC)",300 % of control
same,T/C,"dose: 37.5 mg/kg/injection, schedule: Q01DX009 (ip), vehicle: Klucel (hydroxypropylcellulose) (HPC)",90 % of control
same,T/C,"dose: 37.5 mg/kg/injection, schedule: Q04DX003 (ip), vehicle: Klucel (hydroxypropylcellulose) (HPC)",113 % of control
COc1ccc(CNc2ncccn2)cc1,T/C,[9],95 % of control
same,T/C,[10],100 % of control
same,T/C,[11],104 % of control
same,T/C,[12],88 % of control
same,T/C,[13],89 % of control
same,T/C,[14],96 % of control
Cc1cccc2c1C(=O)OC2(C)c1cccc2ccccc12 (stereo not given),T/C,"dose: 50.0 mg/kg/injection, schedule: Q04DX003 (ip), vehicle: saline with Tween-80",99 % of control
same,T/C,[6],96 % of control
same,T/C,[7],118 % of control
same,T/C,[8],95 % of control
O=C1C=C(c2ccccc2)C(c2ccccc2)C(c2ccccc2)C1 (stereo not given),T/C,[6],100 % of control
same,T/C,[7],91 % of control
same,T/C,[8],86 % of control
O=C(O)CCCOc1ccc(Cl)cc1Cl,T/C,"dose: 100.0 mg/kg/injection, schedule: Q01DX009 (ip), vehicle: saline",100 % of control
same,T/C,"dose: 200.0 mg/kg/injection, schedule: Q01DX009 (ip), vehicle: saline",104 % of control
same,T/C,"dose: 400.0 mg/kg/injection, schedule: Q01DX009 (ip), vehicle: saline",95 % of control
COc1cc(OC)cc(C2N(Cc3ccc(OC)c(OC)c3)CCN2Cc2ccc(OC)c(OC)c2)c1,T/C,[3],100 % of control
same,T/C,[6],100 % of control
same,T/C,[4],109 % of control
same,T/C,[7],100 % of control
same,T/C,[5],109 % of control
same,T/C,[8],115 % of control
N/C(=N\OS(=O)(=O)c1ccccc1)OC1CCCCC1,T/C,[6],99 % of control
same,T/C,[7],98 % of control
same,T/C,[8],98 % of control
Cc1cccc2cc3cccc(C)[n+]3cc12,T/C,"dose: 5.0 mg/kg/injection, schedule: Q01DX010 (ip), vehicle: saline",100 % of control
C/C=C/C=C/C(=O)NO,T/C,"dose: 100.0 mg/kg/injection, schedule: Q04DX003 (ip), vehicle: alcohol",113 % of control
same,T/C,[13],91 % of control
same,T/C,"dose: 200.0 mg/kg/injection, schedule: Q04DX003 (ip), vehicle: alcohol",100 % of control
same,T/C,"dose: 400.0 mg/kg/injection, schedule: Q01DX009 (ip), vehicle: Klucel (hydroxypropylcellulose) (HPC)",116 % of control
same,T/C,"dose: 400.0 mg/kg/injection, schedule: Q04DX003 (ip), vehicle: alcohol",104 % of control
CCN(CC)CCCNC(C)CCCN(CC)CC (stereo not given),T/C,[15],103 % of control
same,T/C,[16],98 % of control
same,T/C,"dose: 100.0 mg/kg/injection, schedule: Q04DX003 (ip), vehicle: water",102 % of control
same,T/C,"dose: 200.0 mg/kg/injection, schedule: Q04DX003 (ip), vehicle: water",100 % of control
CCOC(=O)c1c(-c2ccccc2)cn2c1OC(C)CC2(C)C (stereo not given),T/C,"dose: 50.0 mg/kg/injection, schedule: Q01DX001 (ip), vehicle: saline sonified",100 % of control
same,T/C,"dose: 100.0 mg/kg/injection, schedule: Q01DX001 (ip), vehicle: saline sonified",100 % of control
same,T/C,"dose: 200.0 mg/kg/injection, schedule: Q01DX001 (ip), vehicle: saline sonified",95 % of control
Cc1nc(N)[nH]c(=O)c1CCCNc1cccc(C(F)(F)F)c1,T/C,"dose: 100.0 mg/kg/injection, schedule: Q01DX001 (ip), vehicle: Klucel (hydroxypropylcellulose) (HPC)",100 % of control
same,T/C,"dose: 200.0 mg/kg/injection, schedule: Q01DX001 (ip), vehicle: Klucel (hydroxypropylcellulose) (HPC)",104 % of control
same,T/C,"dose: 400.0 mg/kg/injection, schedule: Q01DX001 (ip), vehicle: Klucel (hydroxypropylcellulose) (HPC)",104 % of control
OCCOCCN1CCN(CC/C=C2\c3ccccc3Sc3ccc(C(F)(F)F)cc32)CC1,T/C,"dose: 0.75 mg/kg/injection, schedule: Q01DX009 (ip), vehicle: saline",95 % of control
same,T/C,"dose: 1.5 mg/kg/injection, schedule: Q01DX009 (ip), vehicle: saline",90 % of control
same,T/C,[1],95 % of control
O=C(O)Cc1nc(Cl)ccc1Cl,T/C,[2],106 % of control
same,T/C,[3],100 % of control
same,T/C,[4],92 % of control
COc1cc(OC)c(N=Cc2ccc3c(c2)OCO3)cc1Cl,T/C,[12],100 % of control
same,T/C,[14],100 % of control
O=C1C(c2ccccc2)=S=C2Sc3ccccc3N12,T/C,[9],100 % of control
same,T/C,"dose: 25.0 mg/kg/injection, schedule: Q04DX003 (ip), vehicle: Klucel (hydroxypropylcellulose) (HPC)",90 % of control
same,T/C,[10],110 % of control
same,T/C,"dose: 50.0 mg/kg/injection, schedule: Q04DX003 (ip), vehicle: Klucel (hydroxypropylcellulose) (HPC)",90 % of control
same,T/C,[11],105 % of control
same,T/C,[12],100 % of control
CC1CCCC[N-]1.CC1CCCC[N-]1.[Cl][Pt+2][Cl] (stereo not given),T/C,[10],103 % of control
same,T/C,[11],97 % of control
O=S1(=O)C=C(Cl)C2C3CC(C(Cl)C3Cl)C21 (stereo not given),T/C,"dose: 7.5 mg/kg/injection, schedule: Q01DX009 (ip), vehicle: saline with Tween-80",100 % of control
same,T/C,"dose: 15.0 mg/kg/injection, schedule: Q01DX009 (ip), vehicle: saline with Tween-80",113 % of control
same,T/C,"dose: 30.0 mg/kg/injection, schedule: Q01DX009 (ip), vehicle: saline with Tween-80",104 % of control
NC(=S)N/N=C\c1c[nH]c2nccnc12,T/C,"dose: 25.0 mg/kg/injection, schedule: Q01DX009 (ip), vehicle: water",106 % of control
same,T/C,[15],92 % of control
same,T/C,[16],100 % of control
same,T/C,"dose: 400.0 mg/kg/injection, schedule: Q01DX009 (ip), vehicle: water",86 % of control
C/C(=N\[N+](C)(C)C)c1ccccc1,T/C,"dose: 50.0 mg/kg/injection, schedule: Q04DX003 (ip), vehicle: saline",95 % of control
same,T/C,"dose: 100.0 mg/kg/injection, schedule: Q04DX003 (ip), vehicle: saline",109 % of control
